These results are taken from patent US8729082B2, “Substituted imidazoquinoxalines” (Bayer Intellectual Property GmbH, priority 2009, dated 2014).

The test has as its target T1, human kinase Mps-1 (Homo sapiens, UniProt P33981).
T1 construct: N-terminally GST-tagged human full length recombinant Mps-1 kinase; purchased Invitrogen, Karslruhe, Germany PV4071
T1 sequence (P33981 1-857): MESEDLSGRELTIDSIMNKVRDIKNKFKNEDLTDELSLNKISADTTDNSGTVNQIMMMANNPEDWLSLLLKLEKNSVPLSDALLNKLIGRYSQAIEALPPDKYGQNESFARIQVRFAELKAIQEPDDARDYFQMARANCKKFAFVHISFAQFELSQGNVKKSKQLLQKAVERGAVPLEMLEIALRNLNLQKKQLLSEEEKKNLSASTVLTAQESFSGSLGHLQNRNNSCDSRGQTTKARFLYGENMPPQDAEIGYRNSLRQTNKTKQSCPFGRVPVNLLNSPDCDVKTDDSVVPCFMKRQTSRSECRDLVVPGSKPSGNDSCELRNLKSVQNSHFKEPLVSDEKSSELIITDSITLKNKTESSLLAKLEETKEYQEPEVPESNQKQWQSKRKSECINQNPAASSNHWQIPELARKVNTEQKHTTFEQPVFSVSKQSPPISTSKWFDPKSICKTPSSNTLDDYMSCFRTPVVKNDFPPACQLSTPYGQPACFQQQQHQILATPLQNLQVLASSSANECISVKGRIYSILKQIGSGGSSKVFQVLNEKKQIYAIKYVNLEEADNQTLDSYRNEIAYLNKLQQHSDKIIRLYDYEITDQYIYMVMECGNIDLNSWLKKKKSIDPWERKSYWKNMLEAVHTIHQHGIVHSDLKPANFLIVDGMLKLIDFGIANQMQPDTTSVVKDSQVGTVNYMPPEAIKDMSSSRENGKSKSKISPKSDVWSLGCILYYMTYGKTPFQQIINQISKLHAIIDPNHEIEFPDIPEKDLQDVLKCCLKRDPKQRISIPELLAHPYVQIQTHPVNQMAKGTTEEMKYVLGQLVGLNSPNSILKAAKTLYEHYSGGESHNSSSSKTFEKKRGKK
The experiment in a line: Mps-1 kinase assay (HTRF). In kind it is biochemical. The settings on record: lowATP; mean; read-out: Mps1 lowATP mean IC50. As for the experimental part: The human kinase Mps-1 phosphorylates a biotinylated substrate peptide. Detection of the phosphorylated product is achieved by homogenous time-resolved fluorescence resonance energy transfer (HTRF) from Europium-labelled anti-phospho-Serine/Threonine antibody as donor to streptavidin labelled with cross-linked allophycocyanin (SA-XLent) as acceptor. Compounds are tested for their inhibition of the kinase activity.
N-terminally GST-tagged human full length recombinant Mps-1 kinase (purchased from Invitrogen, Karslruhe, Germany, cat. no PV4071) was used. As substrate for the kinase reaction a biotinylated peptide of the amino-acid sequence PWDPDDADITEILG (C-terminus in amide form, purchased from Biosynthan GmbH, Berlin) was used.
For the assay 50 nl of a 100-fold concentrated solution of the test compound in DMSO was pipetted into a black low volume 384 well microtiter plate (Greiner Bio-One, Frickenhausen, Germany), 2 μl of a solution of Mps-1 in assay buffer [0.1 mM sodium-ortho-vanadate, 10 mM MgCl2, 2 mM DTT, 25 mM Hepes pH 7.7, 0.05% BSA, 0.001% Pluronic F-127] were added and the mixture was incubated for 15 min at 22° C. to allow pre-binding of the test compounds to Mps-1 before the start of the kinase reaction. Then the kinase reaction was started by the addition of 3 μl of a solution of 16.7 μM ATP and 1.67 μM peptide in assay buffer and the resulting mixture was incubated for a reaction time of 60 min at 22° C. The concentration of Mps-1 in the assay was adjusted to the activity of the enzyme lot and was chosen appropriate to have the assay in the linear range, typical enzyme concentrations were in the range of about 1 nM (final conc. in the 5 μl assay volume). The reaction was stopped by the addition of 3 μl of a solution of HTRF detection reagents (100 mM Hepes pH 7.4, 0.1% BSA, 40 mM EDTA, 140 nM Streptavidin-XLent [#61GSTXLB, Fa. Cis Biointernational, Marcoule, France], 1.5 nM anti-phospho(Ser/Thr)-Europium-antibody [#AD0180, PerkinElmer LAS, Rodgau-Jügesheim, Germany].
The resulting mixture was incubated 1 h at 22° C. to allow the binding of the phosphorylated peptide to the anti-phospho(Ser/Thr)-Europium-antibody. Subsequently the amount of phosphorylated substrate was evaluated by measurement of the resonance energy transfer from the Europium-labelled anti-phospho(Ser/Thr) antibody to the Streptavidin-XLent. Therefore, the fluorescence emissions at 620 nm and 665 nm after excitation at 350 nm was measured in a HTRF reader, e.g. a Rubystar (BMG Labtechnologies, Offenburg, Germany) or a Viewlux (PerkinElmer LAS, Rodgau-Jügesheim, Germany). The ratio of the emissions at 665 nm and at […] was taken as the measure for the amount of phosphorylated substrate. The data were normalised (enzyme reaction without inhibitor=0% inhibition, all other assay components but no enzyme=100% inhibition).
Regarding `CC(C)CNc1nc2ccccc2n2c(-c3ccccc3F)cnc12` [Example 1-26, 1-(2-fluorophenyl)-N-(2-methylpropyl)imidazo[1,2-a]quinoxalin-4-amine], the IC50 was 9.14 µM. The value for `CC(C)CNc1nc2ccccc2n2c(-c3ccc(CO)cc3)cnc12` [Example 1-27, (4-{4-[(2-methylpropyl)amino]imidazo[1,2-a]quinoxalin-1-yl}phenyl)methanol] was 1.68 µM. The value for `CC(C)CNc1nc2ccccc2n2c(-c3ccc4c(c3)OCO4)cnc12` [Example 1-28, 1-(1,3-benzodioxol-5-yl)-N-(2-methylpropyl)imidazo[1,2-a]quinoxalin-4-amine] was 9.9 µM. As to `CCOc1ccc(-c2cnc3c(NCC(C)C)nc4ccccc4n23)cc1` [Example 1-29, 1-(4-ethoxyphenyl)-N-(2-methylpropyl)imidazo[1,2-a]quinoxalin-4-amine], the half-inhibitory concentration (IC50) is 4.98 µM. Regarding `COc1ccc(-c2cnc3c(NCC(C)C)nc4ccccc4n23)c(C)c1` [Example 1-30, 1-(4-methoxy-2-methylphenyl)-N-(2-methylpropyl)imidazo[1,2-a]quinoxalin-4-amine], the IC50 was 15.3 µM. The value for `CC(C)CNc1nc2ccccc2n2c(-c3cccc(F)c3F)cnc12` [Example 1-31, 1-(2,3-difluorophenyl)-N-(2-methylpropyl)imidazo[1,2-a]quinoxalin-4-amine] was 16.3 µM; that for `CC(C)CNc1nc2ccccc2n2c(-c3cccnc3)cnc12` [Example 1-32, N-(2-methylpropyl)-1-(pyridin-3-yl)imidazo[1,2-a]quinoxalin-4-amine] was 18.9 µM. In the case of `COc1ccc(-c2cnc3c(NCC(C)C)nc4ccccc4n23)cc1F` [Example 1-33, 1-(3-fluoro-4-methoxyphenyl)-N-(2-methylpropyl)imidazo[1,2-a]quinoxalin-4-amine], the IC50 was determined as 1.76 µM. The value for `CC(C)CNc1nc2ccccc2n2c(-c3ccncc3)cnc12` [Example 1-34, N-(2-methylpropyl)-1-(pyridin-4-yl)imidazo[1,2-a]quinoxalin-4-amine] was 11.9 µM. The value for `CC(C)CNc1nc2ccccc2n2c(-c3ccccc3O)cnc12` [Example 1-35, 2-{4-[(2-methylpropyl)amino]imidazo[1,2-a]quinoxalin-1-yl}phenol] was 4.62 µM; that for `CC(C)CNc1nc2ccccc2n2c(-c3cccc(O)c3)cnc12` [Example 1-36, 3-{4-[(2-methylpropyl)amino]imidazo[1,2-a]quinoxalin-1-yl}phenol] was 18.6 µM; that for `CC(C)CNc1nc2ccccc2n2c(-c3ccc(O)cc3)cnc12` [Example 1-37, 4-{4-[(2-methylpropyl)amino]imidazo[1,2-a]quinoxalin-1-yl}phenol] was 0.301 µM. The value for `Cc1ccc(-c2cnc3c(NCC(C)C)nc4ccccc4n23)s1` [Example 1-38, N-(2-methylpropyl)-1-(5-methylthiophen-2-yl)imidazo[1,2-a]quinoxalin-4-amine] was 6.05 µM; that for `CC(C)CNc1nc2ccccc2n2c(-c3ccc4[nH]ccc4c3)cnc12` [Example 1-39, 1-(1H-indol-5-yl)-N-(2-methylpropyl)imidazo[1,2-a]quinoxalin-4-amine] was 8.86 µM.

Turning to `CC(C)CNc1nc2ccccc2n2c(-c3ccc(S(C)(=O)=O)cc3)cnc12` [Example 1-40, N-(2-methylpropyl)-1-[4-(methylsulfonyl)phenyl]imidazo[1,2-a]quinoxalin-4-amine], the IC50 was 17.4 µM. Regarding `CC(C)CNc1nc2ccccc2n2c(-c3cc(F)ccc3F)cnc12` [Example 1-41, 1-(2,5-difluorophenyl)-N-(2-methylpropyl)imidazo[1,2-a]quinoxalin-4-amine], the half-inhibitory concentration (IC50) stood at 10.6 µM.

`Cc1ccc(-c2cnc3c(NCC(C)C)nc4ccccc4n23)c(F)c1` [Example 1-42, 1-(2-fluoro-4-methylphenyl)-N-(2-methylpropyl)imidazo[1,2-a]quinoxalin-4-amine]: the IC50 turned out to be 5.91 µM. The value for `CC(C)CNc1nc2ccccc2n2c(-c3cc[nH]n3)cnc12` [Example 1-43, N-(2-methylpropyl)-1-(1H-pyrazol-3-yl)imidazo[1,2-a]quinoxalin-4-amine] was 10.4 µM; that for `CC(=O)NCc1cccc(-c2cnc3c(NCC(C)C)nc4ccccc4n23)c1` [Example 1-44, N-(3-{4-[(2-methylpropyl)amino]imidazo[1,2-a]quinoxalin-1-yl}benzyl)acetamide] was 11.5 µM. The value for `Cc1ccc(-c2cnc3c(NCC(C)C)nc4ccccc4n23)cn1` [Example 1-45, N-(2-methylpropyl)-1-(6-methylpyridin-3-yl)imidazo[1,2-a]quinoxalin-4-amine] was 8.19 µM.

For the molecule `CNC(=O)c1ccc(-c2cnc3c(NCC(C)C)nc4ccccc4n23)cc1Cl` [Example 1-46, 2-chloro-N-methyl-4-{4-[(2-methylpropyl)amino]imidazo[1,2-a]quinoxalin-1-yl}benzamide], the 50% inhibitory concentration (IC50) turned out to be 2.42 µM. The value for `CC(C)CNc1nc2ccccc2n2c(-c3ccc(C(=O)NC4CC4)c(Cl)c3)cnc12` [Example 1-47, 2-chloro-N-cyclopropyl-4-{4-[(2-methylpropyl)amino]imidazo[1,2-a]quinoxalin-1-yl}benzamide] was 0.367 µM. In the case of `CC(C)CNc1nc2ccccc2n2c(-c3ccc4[nH]ncc4c3)cnc12` [Example 1-48, 1-(1H-indazol-5-yl)-N-(2-methylpropyl)imidazo[1,2-a]quinoxalin-4-amine], the half-inhibitory concentration (IC50) worked out at 4.53 µM. The value for `CC(C)CNc1nc2ccccc2n2c(-c3ccc4cn[nH]c4c3)cnc12` [Example 1-49, 1-(1H-indazol-6-yl)-N-(2-methylpropyl)imidazo[1,2-a]quinoxalin-4-amine] was 6.46 µM; that for `CNC(=O)c1ccc(-c2cnc3c(NCC(C)C)nc4ccccc4n23)cn1` [Example 1-50, N-methyl-5-{4-[(2-methylpropyl)amino]imidazo[1,2-a]quinoxalin-1-yl}pyridine-2-carboxamide] was 0.416 µM. The value for `O=C(NC1CC1)c1ccc(-c2cnc3c(NCCO)nc4ccccc4n23)cc1` [Example 2-1, N-cyclopropyl-4-[4-(2-hydroxy-ethylamino)-imidazo[1,2-a]quinoxalin-1-yl]-benzamide] was 0.113 µM.

For `O=C(NC1CC1)c1ccc(-c2cnc3c(NCCCN4CCOCC4)nc4ccccc4n23)cc1` [Example 2-2, N-cyclopropyl-4-(4-{[3-(morpholin-4-yl)propyl]amino}imidazo[1,2-a]quinoxalin-1-yl)benzamide], the IC50 is 0.396 µM.

As to `CC(C)CCNc1nc2ccccc2n2c(-c3ccc(C(=O)NC4CC4)cc3)cnc12` [Example 2-3, N-cyclopropyl-4-{4-[(3-methylbutyl)amino]imidazo[1,2-a]quinoxalin-1-yl}benzamide], the IC50 amounted to 0.034 µM.
